Measured values taken from patent US20130157959A1, “USE OF HADES AS TUMOR SUPPRESSOR TARGET” (KONKUK UNIVERSITY INDUSTRIAL COOPERATION CORP, priority 2010, published 2013).
Peptide text beside a SMILES is read from it. * marks the point of attachment. Cbz = O=C(OCc1ccccc1)*

Tests used:
Assay type in all cases: cell-based
[1] = system: HCT116 p53+/+ cells; assay: JC-1 mitochondrial membrane potential, HCT116 p53+/+; conditions: 40 nM siRNA 24 h, then 1 μM CPT 24 h, FIG. 5j
Protocol: For the MTS assay, cells were incubated with CellTiter 96® AQueous Non-Radioactive Cell Proliferation Assay reagent (Promega, USA) for 1 h, and then the O.D. was measured at 490 nm. Apoptosis, DNA content, and mitochondrial membrane potential were determined by flow cytometry using annexin V-PE, propidium iodine, and JC-1 staining, as previous described [Shirangi et al., FASEB J. 16, 420-422 (2002)].
The present inventors investigated the negative role of Hades on p53-dependent apoptosis additionaly using FACS analysis. MCF7 cells were transfected with pSuper or pSuper-Hades, treated with 1 μM CPT for 24 h, and analyzed by FACS to measure the sub-GO fraction. As a result, CPT treatment was higher in Hades knockdown MCF7 cells than in control cells (FIG. 5i). Further, HCT116 p53+/+ and HCT116 p53−/− cells were transfected with 40 nM Hades siRNA or control siRNA. After incubation for 24 h, cells were further treated with 1 μM CPT for 24 h. Cells were harvested and stained with JC-1 for 30 min.

[2] = system: p53; assay: In vivo p53 ubiquitination assay in H1299 cells; conditions: H1299 cotransfected with p53 and GFP-Hades, MG132 10 μM 4 h, FIG. 3e
Protocol: For in vivo p53 ubiquitination assay, HCT116 p53^−/− or H1299 cells were transfected with GFP, GFP-Hades, or GFP-Hades RING MT. At 48 hr after transfection, cells were treated with 10 μM MG132 for 4 hr. The ubiquitinated lysates were analyzed by immunoprecipitation using anti-p53 antibody followed by immunoblotting using anti-Ubiquitin antibody. In vivo p53 ubiquitination analysis, HCT116 p53^−/− or H1299 cells were transformed with GFP, GFP-Hades or GFP-Hades RING MT for 48 hr. After the transformation, cells were incubated for 4 hr using 10 μM MG132. Then, cells were lysed using SDS-containing lysis buffer and heated for […]. […] The anti-p53 immunoprecipitate was analyzed by immunoblotting using anti-polyubiquitin antibody.
Since there are several E2 conjugating enzymes which participate in the ubiquitin-mediated degradation [Smalle et al., Annu Rev Plant Biol. 2004, 555-590 (2004)], we examined which E2 enzyme is responsible for the ubiquitination of p53 by Hades. […] After in vitro ubiquitination, samples were examined SDS-PAGE and detected using autoradiography. […] Moreover, in vitro translated ^35S-labeled p53 was incubated with GST, GST-Hades RP or GST-Mdm2 in the presence of ATP, His-tagged ubiquitin E1 and E2(UbcHSc). p53 ubiquitination was assessed by immunoblotting using anti-p53 antibody. […] The p53 ubiquitination was assessed by immunoblotting using anti-p53 antibody. […]

[3] = system: p53; assay: p53 level in Hades-transfected H1299 cells with MG132; conditions: H1299, 10 μM MG132 4 h, FIG. 2e
Protocol: To gain a more detailed insight into the function of Hades in p53 downregulation, we investigated the regulation of p53 stability by Hades. H1299 cells were transfected with each indicated plasmid for 24 h and untreated or treated with 10 μM MG132 for 4 h. The reduced level of p53 by Hades was recovered by treatment of MG132 (FIG. 2e). To generate of stable Hades-knockdown MCF7 cells using the shRNA, the cells were transfected with pSuper-Hades 1 or 2. After selection for 14 days in media containing G418 (500 μg/ml), hades mRNA levels were measured by RT-PCR and the levels of endogenous Hades and p53 proteins were measured by immunoblotting. […] Furthermore, Stable Hades-knockdown MCF7 cells using Hades shRNA were incubated with cycloheximide (CHX, 150 μg/ml). The half-life of p53 protein was greater in pSuper-Hades transfected cells (lower panel) than in control (upper panel) (FIG. 2g).

[4] = system: p53; assay: Bax-luc / Puma-luc luciferase reporter assay; conditions: H1299, LMB 20 nM 4 h, FIG. 4b
Protocol: Aliquots of 5×10^4 cells were plated in 24-well plates. The following was added to each well: 500 ng of pGL plasmid containing the promoter p53 binding site for Bax or Puma, 100 ng of p53 plasmid, and 200 ng of Hades or Hades MT plasmid. At 48 h after transfection, cells were harvested and cell extracts were prepared by addition of 50 μl Passive lysis buffer (Promega). Luciferase activities were measured using a Biotek synergy HT microplate reader. The relative luciferase activities were normalized by mesuring β-galactosidase activities using Luminescent β-galactosidase detection kit II (Takara-Clontech).
Since E3 ligase activities necessary for p53 ubiquitination can also regulate p53 function [Dornan et al., Nature 429, 86-92 (2004); Leng et al., Cell 112, 779-791 (2003)], we explored the effect of Hades on p53-dependent growth suppression and apoptosis. First, we examined whether Hades affects p53-mediated transcriptional activation using a luciferase reporter assay (FIG. 4a). H1299 cells were cotransfected with expression plasmids for p53 and GFP, GFP-Hades, or GFP-Hades MT, together with Bax-luc or Puma-luc reporter plasmid. At 24 h after transfection, the relative luciferase activities were measured by luminometer. […] At 24 h after transfection, luciperase activation and p53 experssion were measured.

[5] = target: Crm1 (Homo sapiens, UniProt O14980); assay: p53 level in Hades-transfected H1299 cells with leptomycin B; conditions: H1299 transfected with p53 and GFP-Hades, FIG. 2i
Protocol: Next, we monitored the localization of p53 after the knockdown of Hades. […] The levels of endogenous p53 were measured in fractionated extracts of stable MCF7 cells. […] And also, we used a p53 expression plasmid encoding a mutant p53 (C153Y) that is localized mainly to the cytoplasm but not in the nucleus [Nie et al., J Biol Chem. 282, 14616-14625 (2007)]. We performed immunoblotting assay of ectopically expressed wild-type or mutant p53(C135Y). […] At 24 h after transfection, ectopically expressed wild-type p53 and mutant p53 levels were measured by immunoblotting.

[6] = system: p53; assay: p53 accumulation in CPT-treated MCF7 cells (immunoblotting)
Protocol: In a prior research, as p53 is rapidly translocated to mitochondria upon camptothecin (CPT) treatment for its exonuclear function [Mihara et al., Molecular Cell 11, 577-590 (2003)]. We examined whether Hades would be able to weaken the exonuclear function of p53 upon CPT treatment. MCF7 cells were transfected with plasmids (1 μg) expressing GFP or GFP-Hades. At 24 h post-transfection, cells were treated with CPT (1 μM) for 6 h. Accumulation of p53 upon CPT treatment was attenuated by Hades expression (FIG. 5e, upper panel). MCF7 cells were transfected with expression plasmid for GFP or GFP-Hades RING MR. At 24 h after transfection, cells were treated with CPT [5 μM] for 6 h and their nuclear and cytoplasmic fractions were collected to measure the expression level of p53. […] Further, MCF7 cells were transfected with the expression plasmids for GFP or GFP-Hades MR. At 24 h after transfection, cells were treated with 1 μM CPT for 24 h. Cells were harvested, lysed and immunoprecipitated with anti-p53 antibody. […] Hades inhibits the interaction between p53 and Bcl-2 in CPT-treated cells. (FIG. 5f) In order to confirm the effect of Hades on CPT-induced apoptosis, MCF7 cells were transfected with plasmids expressing GFP or GFP-Hades. At 24 h post-transfection, cells were treated with CPT (1 μM) for 24 h.

Chain of Crm1 (O14980 whole entry): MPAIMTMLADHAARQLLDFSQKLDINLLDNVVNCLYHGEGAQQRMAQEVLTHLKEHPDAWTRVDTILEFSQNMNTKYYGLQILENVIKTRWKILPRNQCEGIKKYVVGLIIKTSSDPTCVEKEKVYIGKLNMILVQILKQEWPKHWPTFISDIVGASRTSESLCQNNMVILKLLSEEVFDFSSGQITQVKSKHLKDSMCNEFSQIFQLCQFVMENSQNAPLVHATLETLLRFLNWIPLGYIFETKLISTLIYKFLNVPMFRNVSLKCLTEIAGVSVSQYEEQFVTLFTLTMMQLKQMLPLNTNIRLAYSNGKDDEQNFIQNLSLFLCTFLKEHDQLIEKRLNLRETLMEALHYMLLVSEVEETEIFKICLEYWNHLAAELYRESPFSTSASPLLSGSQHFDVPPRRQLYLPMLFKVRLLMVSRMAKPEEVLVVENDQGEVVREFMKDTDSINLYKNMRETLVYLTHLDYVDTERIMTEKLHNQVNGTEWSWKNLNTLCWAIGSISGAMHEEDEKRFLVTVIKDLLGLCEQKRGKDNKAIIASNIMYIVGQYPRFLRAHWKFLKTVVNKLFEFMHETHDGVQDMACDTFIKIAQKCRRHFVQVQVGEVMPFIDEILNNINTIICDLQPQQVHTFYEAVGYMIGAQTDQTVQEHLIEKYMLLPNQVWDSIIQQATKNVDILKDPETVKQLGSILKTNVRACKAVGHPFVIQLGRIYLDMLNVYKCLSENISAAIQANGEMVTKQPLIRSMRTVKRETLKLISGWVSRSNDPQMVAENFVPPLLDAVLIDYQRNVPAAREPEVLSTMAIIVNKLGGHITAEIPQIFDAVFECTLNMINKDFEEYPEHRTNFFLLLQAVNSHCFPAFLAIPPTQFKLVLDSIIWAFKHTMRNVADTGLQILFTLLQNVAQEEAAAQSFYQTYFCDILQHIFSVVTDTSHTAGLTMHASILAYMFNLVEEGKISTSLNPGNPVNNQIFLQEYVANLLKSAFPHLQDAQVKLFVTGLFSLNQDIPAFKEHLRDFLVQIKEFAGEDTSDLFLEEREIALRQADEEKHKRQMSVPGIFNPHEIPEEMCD

Hades siRNA: siRNAs for Hades from Ambion, GGGAUUUUUAUCUCGAGGC and CGUGUGUGUAGAGGACAAA; antisense SEQ ID NO: 4 and 5 (antisense 1 GCCUCGAGAUAAAAAUCCCTG; antisense 2 UUUGUCCUCUACACACACGTG; sense strands lack entries, further chemistry not given here)
loss of mitochondrial membrane potential (JC-1) [1]: only detectable in HCT116 p53+/+ cells

CC(C)C[C@@H](C=O)NC(=O)[C@H](CC(C)C)NC(=O)[C@H](CC(C)C)NC(=O)OCc1ccccc1 [MG132] (Cbz-Leu-Leu-Leu-aldehyde)
polyubiquitinated p53 [2]: only detected in Hades-transfected cells treated with MG132
level of p53 reduced by Hades [3]: recovered

CCC(=C/[C@H](C)C/C=C/C(C)=C/[C@@H](C)C(=O)[C@@H](C)[C@H](O)[C@@H](C)C/C(C)=C/C(=O)O)/C=C/[C@@H]1OC(=O)C=C[C@@H]1C [LMB, Leptomycin B]
p53 transcriptional activity (relative luciferase activity) [4]: not reduced by Hades in the presence of LMB
level of p53 reduced by Hades [5]: restored the level of p53

CC[C@@]1(O)C(=O)OCc2c1cc1n(c2=O)Cc2cc3ccccc3nc2-1 [CPT, Camptothecin]
expression level of p53 ([6]; MCF7, 1 μM CPT 24 h, FIG. 5f): accumulation of p53 expression was observed
expression level of p53 in nuclear and cytoplasmic fractions ([6]; MCF7, CPT 5 μM 6 h, FIG. 5e lower panel): accumulated in nucleus and cytoplasm
